Values of other authors as cited in publication PMC8273902 (Drug Design, Development and Therapy, 2021).
Where two headings read alike, the source gives them in different places.

Conditions: humans

Row | SMILES | AUC0-t (100 mg) | Cmax (100 mg) | CL (CL, 50 mg, intravenous) | Food effect: reduction of AUC (systemic exposure) (high-fat meal) [%] | Tmax | Vd/F [L] | t1/2 [h] | AUC0-t (20 mg) | CL/F (20 mg) | Cmax (20 mg) | Dose linearity | Food effect on PK properties | Food effect on PK properties (listed as tadalafil)
1 | CCCc1nn(C)c2c(=O)[nH]c(-c3cc(S(=O)(=O)N4CCN(C)CC4)ccc3OCC)nc12 [Sildenafil, sildenafil] | 1685 (100 mg) h·ng/mL | 560 (100 mg) ng/mL | 41 (CL, 50 mg, intravenous) L/h | 11 | 1 (0.5–2) h | >310 | 3 to 5 |  |  |  |  |  | 
2 | CN1CC(=O)N2[C@H](c3ccc4c(c3)OCO4)c3[nH]c4ccccc4c3C[C@@H]2C1=O [Tadalafil, tadalafil] |  |  |  |  | 2 (0.5–6) h | 60 to 70 |  | 8066 (20 mg) h·ng/mL | 2.5 (20 mg) L/h | 378 (20 mg) ng/mL | Linear | No significant effect | not affected by food
